Measured values: patent US4728650A, “3,4-dihydrobenzopyran derivatives and medicinal uses thereof” (Kuraray Co., Ltd., priority 1985, dated 1988)
Structures can show the parent of a compound that is named as a salt.

How the values were obtained:
[1] = Expectorant action: tracheal secretion of fluorescein sodium in rats; type: in vivo, Wistar rats (male); settings: 50 mg/kg oral
Experimental: Male Wistar rats (body weights, 280-320 g) were used in groups of 7 animals. Each test compound was orally administered in dose of 50 mg/kg body weight to rats. Immediately after administration, 0.3 ml/100 g (body weight of rat) of a 1% aqueous solution of fluorescein sodium was injected into the caudal vein. One hour after administration of the test compound, pentobarbital sodium 100 mg/kg (body weight of rat) was injected intraperitoneally so that deep anesthesia might cause the rat to die. Then, the trachea was exposed and an incision was made in the trachea. A sonde was inserted thereinto and ligation was made. To the sonde was connected a syringe containing 10 ml of a 5% solution of sodium hydrogen carbonate kept at 37° C. and 4 ml of the solution of sodium hydrogen carbonate was injected into the lung. After 5 minutes, the fluid in the lung was removed. After this procedure of injection and removal was repeated three times, the fluid removed from the lung was filtered and the filtrate was made up with water to make 20 ml. The intensity of fluroescence was determined at the excitation wave length of 491 nm and the fluorescence wave length of 510 nm using a spectrophotometer (HITACHI model 650-10, Hitachi, Ltd.). The amount of fluorescein sodium secreted into the trachea was estimated from the intensity of fluorescence. Each test compound was administered as suspended in a gum arabic solution in concentration of 5%.

[2] = Antitussive action: coughing induced by tracheal stimulation in guinea pigs; type: in vivo; settings: Cavia porcellus, ip; Table 17; intraperitoneal; up and down method
Experimental: Pentobarbital sodium 15 mg/kg was injected intraperitoneally to guinea pigs (body weight, 400 g or more) and under slight anesthesia, each guinea pig was immobilized in dorsal position. The skin in the anterior cervical region was incised along the midline and the trachea was exposed so as not to injure the subcutaneous tissue. A small hole was drilled in the anterior aspect of the trachea at a location 1.5 cm distant from the clavicle and through this hole a stimulating hair was inserted over a distance of 3 cm at an angle of 30° from the longitudinal axis of the trachea and, after one second, was pulled out. The stimulation was given 5 and 20 minutes after drilling of the small hole, and after occurrence of coughing was confirmed, each test compound was injected intraperitoneally. At 5 time points, i.e. 15, 30, 60, 90 and 120 minutes after injection, it was checked whether stimulation caused coughing in the same manner as described above. If coughing was not induced, even only once on the five occasions of stimulation, the test compound was regarded as effective, and if cough appeared on all the 5 occasions of stimulation,the test compound was regarded as ineffective. The ED50 value (mg/kg) was determined by the up and down method using 10 guinea pigs [See K. A. Brownlee et al., J. Am. Stat. Assoc. 48, 262 (1953)]. As a stimulating hair, one porcine bristle, about 5 cm long, was used.
After completion of the study, the skin and wound opening of each guinea pig were fully disinfected with acrinol solution and the skin was sutured. Then, the guniea pigs were maintained as usual. The guinea pigs were not vigorous on the day following the test, with body weights decreased, but recovered after one week. After the lapse of 10 days or more, the animals were resubmitted to the test.

[3] = Hydrochloric acid-ethanol-induced ulcer in rats; type: in vivo, Wistar rats (male); settings: for inhibition in vivo at 50 mg/kg / inhibition in vivo at 200 mg/kg: Rattus norvegicus, po, 1 h
Experimental: Male Wistar rats (body weights, 170-210 g) were used in groups of 6 to 8 animals. Indomethacin, 20 mg/kg body weight, was injected subcutaneously to rats which had been deprived of food for 24 hours. After 7 hours, the stomach was excised under ether anesthesia. A 10% aqueous solution of formaldehyde was infused into the stomach until the stomach was inflated and, then, the stomach was immersed in a 10% aqueous solution of formaldehyde for 10 minutes for fixation of the tissue. After fixation, an incision was made along the greater curvature and the length of ulcers occurring in the glandular portion of the stomach was measured. The total length of ulcers occurring in a rat was taken as an ulcer index. Each test compound was orally administered, as suspended in a gum arabic solution in concentration of 5%, to rats 10 minutes before subcutaneous injection of indomethacin. Male Wistar rats (body weights, 160-190 g) were used in groups of 6 to 8 animals. One milliliter of a 60% aqueous solution of ethanol containing 150 mM hydrochloric acid was administered orally to rats which had been deprived of food for 24 hours. After one hour, the stomach was excised under ether anesthesia. In a manner similar to that described in study for indomethacin-induced ulcer, the ulcer index was determined. Each test compound was orally administered, as suspended in a gum arabic solution in concentration of 5%, to rats 1 hour before administration of hydrochloric acid-ethanol.

[4] = Stress ulcer (water immersion stress) in mice; type: in vivo, mice (ddK strain, male)
Experimental: Male mice of ddK strain (body weights, 18-20 g) were placed in a stress cage in groups of 6 animals and immersed down to the level of the xiphoid process in a water bath at 22±1° C. to give a stress. Five hours later the mice were raised from the water bath and the stomach was removed under ether anesthesia. Into the stomach was infused 1.2 ml of a 10% aqueous solution of formaldehyde and, then, the stomach was immersed in a 10% aqueous solution of formaldehyde for 10 minutes for fixation of the tissue. After fixation, an incision was made along the greater curvature for observing ulcers which had appeared in the glandular portion of the stomach. The degree of ulceration was classified according to the following ulcer index scale and the % inhibition of ulcer was estimated.
2: Hemorrhage and erosion
3: Severe hemorrhage and erosion
Each test compound was orally administered, as suspended in a gum arabic solution in concentration of 5%, to mice 10 minutes before stress loading.

[5] = Pyloric ligation-induced ulcer (Shay ulcer) in rats; type: in vivo, Wistar rats (male); settings: Table 2, 200 mg/kg i.d.
Experimental: Male Wistar rats (body weights, 180-200 g) were used in groups of 7 animals. After 48-hour fasting, laparotomy was performed under ether anesthesia and the pylorus was ligated with a suture. After 13 hours, the stomach was isolated under ether anesthesia and gastric juice was collected. The gastric juice was centrifuged at 3,000 r.p.m. for 10 minutes and the volume and pH value of gastric juice were determined. The pH value was determined by using pH paper. After collection of gastric juice, a 10% aqueous solution of formaldehyde was infused into the stomach until the stomach was inflated. Then, the stomach was immersed in a 10% aqueous solution of formaldehyde for 10 minutes for fixation of the tissue. After fixation, an incision was made along the greater curvature for observing ulcers which had developed in the glandular portion of the stomach. The degree of ulcer was classified according to the following ulcer index scale.
2: 1-5 small ulcers (<3 mm in diameter)
3: Six or more small ulcers or one large ulcer (>3 mm in diameter)
4: Two or more large ulcers
Each test compound was administered, as suspended in a gum arabic solution in concentration of 5%, into the duodenum immediately after pyloric ligation.

[6] = Indomethacin-induced ulcer in rats; type: in vivo, Wistar rats (male); settings: Table 3, 200 mg/kg p.o.
Experimental: Male Wistar rats (body weights, 170-210 g) were used in groups of 6 to 8 animals. Indomethacin, 20 mg/kg body weight, was injected subcutaneously to rats which had been deprived of food for 24 hours. After 7 hours, the stomach was excised under ether anesthesia. A 10% aqueous solution of formaldehyde was infused into the stomach until the stomach was inflated and, then, the stomach was immersed in a 10% aqueous solution of formaldehyde for 10 minutes for fixation of the tissue. After fixation, an incision was made along the greater curvature and the length of ulcers occurring in the glandular portion of the stomach was measured. The total length of ulcers occurring in a rat was taken as an ulcer index. Each test compound was orally administered, as suspended in a gum arabic solution in concentration of 5%, to rats 10 minutes before subcutaneous injection of indomethacin. The doses of test compounds and the ulcer indices for treated and untreated rats are shown in Table 3 for purposes of comparison. The % inhibition of ulcer by each test compound as estimated from the ulcer index is also presented in the same table.

[7] = Table 16, control 6.455 ± 0.766

Structure (SMILES): CCOC(CN1CCN(CC(C)C(=O)c2ccccc2)CC1)c1ccccc1 (stereo not drawn) [Eprazinone hydrochloride, 3-[4-(β-ethoxyphenethyl)-1-piperadinyl]-2-methylpropiophenone hydrochloride, reference compound]
- Secretory amount (mean ± S.E.) ([1]; Table 13, control 5.30 ± 0.40): 5.26 ± 0.40 μg/100 g (body weight of rat)/
- Secretory amount (mean ± S.E.) ([1]; Table 14, control 1.60 ± 0.18): 2.67 ± 0.18 μg/100 g (body weight of rat)/
- Secretory amount (mean ± S.E.) [1, 7]: 5.736 ± 0.369 μg/100 g (body weight of rat)/
- ED50 [2]: 122 mg/kg

Structure (SMILES): COc1ccc(C(=O)N2CCN(CCC3(C)CCc4c(C)c(OC)c(C)c(C)c4O3)CC2)cc1 (stereo not drawn) [Compound (19), 1-[2-(3,4-Dihydro-6-methoxy-2,5,7,8-tetramethyl-2H-benzopyran-2-yl)ethyl]-4-(4-methoxybenzoyl)piperazine]
- Secretory amount (mean ± S.E.) ([1]; Table 13, control 5.30 ± 0.40): 8.12 ± 0.58 μg/100 g (body weight of rat)/
- ED50 [2]: 50.1 mg/kg

Structure (SMILES): COc1cc(C(=O)N2CCN(CCC3(C)CCc4c(C)c(OC)c(C)c(C)c4O3)CC2)cc(OC)c1OC (stereo not drawn) [Compound (17), 3,4-Dihydro-6-methoxy-2-[2-[4-(3,4,5-trimethoxybenzoyl)piperazin-1-yl]ethyl]-2,5,7,8-tetramethyl-2H-benzopyran]
- inhibition in vivo at 50 mg/kg ([3]; Table 9, 50 mg/kg p.o.): 65.7%
- Ulcer index (mean ± S.E.) ([3]; Table 9, 50 mg/kg p.o., control 7.22 ± 0.36): 2.48 ± 0.68 mm
- Secretory amount (mean ± S.E.) ([1]; Table 13, control 5.30 ± 0.40): 7.90 ± 0.72 μg/100 g (body weight of rat)/
- Secretory amount (mean ± S.E.) ([1]; Table 15, control 5.20 ± 0.78): 9.44 ± 1.14 μg/100 g (body weight of rat)/
- ED50 [2]: 113 mg/kg

Structure (SMILES): COc1ccc(CN2CCN(CCC3(C)CCc4c(C)c(OC)c(C)c(C)c4O3)CC2)c(OC)c1OC (stereo not drawn) [Compound (31), 1-[2-(3,4-Dihydro-6-methoxy-2,5,7,8-tetramethyl-2H-benzopyran-2-yl)ethyl]-4-(2,3,4-trimethoxybenzyl)piperazine]
- inhibition in vivo at 50 mg/kg ([3]; Table 11, 50 mg/kg p.o.): 100%
- Ulcer index (mean ± S.E.) ([3]; Table 11, 50 mg/kg p.o., control 6.12 ± 1.76): 0.00 ± 0.00 mm
- Secretory amount (mean ± S.E.) [1, 7]: 7.529 ± 0.751 μg/100 g (body weight of rat)/

Structure (SMILES): CN1[C@@H]2CC[C@H]1C[C@@H](OC(=O)C(CO)c1ccccc1)C2 (stereo partly drawn) [Atropine sulfate]
- % Inhibition of ulcer ([4]; Table 1, 30 mg/kg p.o.): 80.99%
- Ulcer index (mean ± S.E.) ([4]; Table 1, 30 mg/kg p.o., control 2.63 ± 0.18): 0.50 ± 0.29 mm

Structure (SMILES): CNC(=NC#N)NCCSCc1nc[nH]c1C [Cimetidine, N"-cyano-N-methyl-N'-[2-[(5-methyl-1H-imidazol-4-yl)methylthio]ethyl]guanidine, reference compound]
- % Inhibition of ulcer ([4]; mouse, in vivo, po, 200 mg/kg): 49.43%
- Ulcer index (mean ± S.E.) ([4]; mouse, in vivo, po, 200 mg/kg): 1.33 ± 0.21 mm
- pH value of gastric juice ([5]; control 1.77 ± 0.54): 2.29 ± 0.88
- Volume of gastric juice ([5]; control 5.09 ± 0.40): 5.13 ± 0.99 ml/100 g body weight
- Ulcer index (mean ± S.E.) ([5]; scale 0-5, control 3.86 ± 0.40): 1.71 ± 0.18
- inhibition in vivo at 200 mg/kg ([3]; Table 7, 200 mg/kg p.o.): 77.9%
- inhibition in vivo at 200 mg/kg ([3]; Table 12, 200 mg/kg p.o.): 78%
- Ulcer index (mean ± S.E.) ([3]; Table 4, 200 mg/kg p.o., control 7.36 ± 1.23): 1.63 ± 0.49 mm
- Ulcer index (mean ± S.E.) ([3]; Table 12, 200 mg/kg p.o., control 9.93 ± 0.91): 2.18 ± 1.04 mm
- % Inhibition of ulcer [6]: 86.97%
- Ulcer index (mean ± S.E.) ([6]; control 10.36 ± 2.07): 1.35 ± 0.48 mm
